The source of these data is paper PMC6894747 (PLoS Pathogens, 2019).

One assay concerns HIV-1 clinical strains. It counts as cell-based. The note with it: 8 clinical strains.
Another assay relates to HIV-1 JR-CSF. The assay can be described thus: Inhibitors alone or in combination against HIV-1 JR-CSF. Format: cell-based. How it is done: The samples were serially diluted and tested for their inhibitory activity on HIV-1 infection as described above. The data were analyzed for synergistic effect by calculating the combination index (CI) with the CalcuSyn software. CI values of <0.95 and >1.05 indicate synergy and antagonism, respectively. CI <0.1, 0.1–0.3, 0.3–0.7, 0.7–0.85, and 0.85–0.90 indicate very strong synergism, strong synergism, synergism, moderate synergism, and slight synergism, respectively. Fold of dose reduction was calculated with the ratio of concentrations of inhibitor testing alone and in combination.

For another assay, the target named is rhesus monkey IgG. Briefly: ELISA binding to rhesus monkey IgG. The note with it: ELISA on peptide-coated plate; one site specific binding fit; ± SE, three replicates per point; read-out: Estimated Kd of binding to rhesus monkey IgG. How it is done: Next, different concentrations of human or rhesus monkey IgG were added to the peptide-coated plate and incubated at 37 °C for 1 h. Rabbit anti-human IgG-HRP (1:3000 diluted) was added to each well and incubated at 37 °C for another 1 h. Afterwards, the bound IgG-HRP was detected by addition of the HRP substrate TMB. The reaction was terminated by addition of 1 M H2SO4 50 μL. Absorbance at 450 nm was measured using an ELISA reader (Ultra 384; Tecan, Research Triangle Park, NC).
The data was fitted to the “one site – specific binding” using GraphPad Prism. The standard error (SE) is given for a sample size of three replicates per data point.

Positions of bridges follow the written chain, without caps; N, C: chain ends. Residues, ends and D or L forms follow the SMILES beside them.

Protocol for HIV-1 clinical strains: Briefly, 1×10^5/mL MT-2 or M7 cells were infected with different HIV-1 viruses at 100 TCID50 (50% tissue culture infective dose) in the presence or absence of peptides at graded concentrations overnight. Then the culture supernatants were replaced with equal volume of fresh medium. On the fourth day post-infection, supernatants were collected and mixed with equal volume of 5% Triton X-100. […] The IC50 values were calculated with CalcuSyn software [35–36], and inhibition curves of best fit were generated with GraphPad Prism.

As for `CC[C@H](C)[C@H](NC(=O)[C@H](CC(C)C)NC(=O)[C@H](CCC(=O)O)NC(=O)[C@H](CCC(=O)O)NC(=O)[C@@H](NC(=O)[C@H](CCCCN)NC(=O)[C@H](CCCCN)NC(=O)[C@@H](NC(=O)[C@H](Cc1ccc(O)cc1)NC(=O)[C@H](CCC(=O)O)NC(=O)[C@H](CCC(=O)O)NC(=O)[C@@H](NC(=O)[C@H](CCCCN)NC(=O)[C@H](CCCCN)NC(=O)[C@H](CC(=O)O)NC(=O)[C@H](Cc1c[nH]c2ccccc12)NC(=O)[C@H](CCC(=O)O)NC(=O)[C@H](CCC(=O)O)NC(=O)[C@H](Cc1c[nH]c2ccccc12)NC(=O)[C@@H](NC(=O)[C@H](CCSC)NC(=O)[C@@H](NC(=O)[C@@H]1CSSC[C@H](NC(=O)[C@@H](N)CC(=O)O)C(=O)N[C@@H](C)C(=O)N[C@@H](Cc2c[nH]c3ccccc23)C(=O)N[C@@H](Cc2c[nH]cn2)C(=O)N[C@@H](CC(C)C)C(=O)NCC(=O)N[C@@H](CCC(=O)O)C(=O)N[C@@H](CC(C)C)C(=O)N[C@@H](C(C)C)C(=O)N[C@@H](Cc2c[nH]c3ccccc23)C(=O)N1)[C@@H](C)O)[C@@H](C)O)[C@@H](C)CC)[C@@H](C)O)[C@@H](C)CC)C(=O)N[C@@H](CCCCN)C(=O)N[C@@H](CCCCN)C(=O)N[C@@H](CO)C(=O)O` [IBP-CP24] (H-DCAWHLGELVWCTMTWEEWDKKIEEYTKKIEELIKKS-OH; disulfide 2-12; N-terminus and C-terminus assumed), the “average IC50 fold of that of CP24, clinical strains” value in the assay on HIV-1 clinical strains (comparison with CP24) was approximately 1.1 fold. The “average IC50 fold of that of T20, clinical strains” value in the assay on HIV-1 clinical strains (comparison with T20) is “about 2.5 fold”. Also, the Dose reduction in the assay on HIV-1 JR-CSF (mixture 10E8 / IBP-CP24, HIV-1 JR-CSF) is recorded as 9.0 fold; in the assay with HIV-1 JR-CSF (mixture C34 / IBP-CP24, HIV-1 JR-CSF), 0.4 fold; in the assay on HIV-1 JR-CSF (mixture VRC07 / IBP-CP24, HIV-1 JR-CSF), 4.4 fold. Also, the Kd (in general, a measure of binding affinity in units of concentration) at rhesus monkey IgG is 0.557 µM.
